Laboratory results: patent US20090118286A1, “Heterobicyclic Acrylamides” (Bayer Cropscience AG, priority 2005, published 2009)

Experiment: log P determination by HPLC (EEC Directive 79/831 Annex V.A8, gradient method)
Type: physicochemical

Row | SMILES | Physical data: logP | Physical data (logP) | other results
1 | COCc1nn2c(/C=C/C(=O)NC3CCC(C(F)(F)F)CC3)c(-c3ccccc3Cl)nc2s1 (stereo not drawn) [Example 0821] | 3.4 | – | –
2 | O=C(O)/C=C/c1c(-c2ccc(Cl)nc2)nc2sc(C(F)(F)F)nn12 [VA125] | – | 2.42 | –
3 | Cc1cn2c(/C=C/C(=O)NCC(C)C)c(-c3ccccc3Cl)nc2s1 [Example 0860] | 2.64 | – | –
4 | COc1ccc(-c2nc3sc(C(F)(F)F)nn3c2/C=C/C(=O)N2CCOCC2)cc1OC [Example 0718] | 2.58 | – | –
5 | CCC(NC(=O)/C=C/c1c(-c2ccc(OC)c(OC)c2)nc2sc(C(F)(F)F)nn12)c1ccccc1 (stereo not drawn) [Example 0684] | 3.76 | – | –
6 | O=Cc1c(-c2ccc(Cl)nc2)nc2sc(C(F)(F)F)nn12 [IVA123] | – | 2.54 | –
7 | CCC(NC(=O)C=Cc1c(-c2ccc(F)cc2)nc2sc(C(F)(F)F)nn12)c1ccccc1 (stereo not drawn) [Example 0332] | – | – | Physical data: log P: 4.18
8 | CC(NC(=O)/C=C/c1c(-c2cccnc2Cl)nc2sc(C(F)(F)F)nn12)C(F)(F)F (racemic) [Example 0948] | 2.76 | – | –
9 | COc1ccc(-c2nc3sc(C(F)(F)F)nn3c2/C=C/C(=O)NC(C)C)cc1OC [Example 0652] | 2.85 | – | –
10 | O=C(/C=C/c1c(-c2ccccc2F)nc2sc(C(F)(F)F)nn12)N1CCOCC1 [Example 0507] | – | – | Physical data: log P: 2.7
11 | Cc1csc2nc(-c3ccccc3Cl)c(/C=C/C(=O)NC(C)C)n12 [Example 0890] | 2.09 | – | –
12 | O=C(C=Cc1c(-c2ccc(F)cc2Cl)nc2sc(C(F)(F)F)nn12)NC1CCCCC1C(F)(F)F (stereo not drawn) [Example 0600] | – | – | Physical data: log P: 4.12
13 | Cc1ccccc1-c1nc2sc(C(F)(F)F)nn2c1/C=C/C(=O)NOCC1CC1 [Example 0282] | – | – | Physical data: log P: 3.26
14 | O=Cc1c(-c2ccc(-c3ccc(Cl)cc3)cc2)nc2sc(C(F)(F)F)nn12 [IVA119] | – | 4.63 | –
15 | Cc1csc2nc(-c3ccccc3Cl)c(/C=C/C(=O)NCC(F)(F)C(F)(F)C(F)(F)F)n12 [Example 0903] | 3.22 | – | –
16 | CC(ONC(=O)/C=C/c1c(-c2ccc(Cl)cc2)nc2sc(C(F)(F)F)nn12)c1ccccc1 (stereo not drawn) [Example 0062] | – | 4.18 | –
17 | Cc1csc2nc(-c3ccccc3Cl)c(/C=C/C(=O)NC(C)C(F)(F)F)n12 (stereo not drawn) [Example 0883] | 2.59 | – | –
18 | Cc1ccccc1-c1nc2sc(C(F)(F)F)nn2c1/C=C/C(=O)NOC(C)c1ccccc1 (stereo not drawn) [Example 0284] | – | – | Physical data: log P: 3.81
19 | CCC(NC(=O)/C=C/c1c(-c2ccc(Cl)cc2)nc2sc(C(F)(F)F)nn12)C1CCCCC1 (stereo not drawn) [Example 0045] | – | 5.31 | –
20 | O=Cc1c(-c2ccc(Oc3ccc(Cl)cc3)cc2)nc2sc(C(F)(F)F)nn12 [IVA122] | – | 4.56 | –
21 | O=C(/C=C/c1c(-c2ccccc2Cl)nc2sc(-c3ccc(C(F)(F)F)cc3)nn12)Nc1ccc(C(F)(F)F)cc1 [Example 0857] | 5.61 | – | –
22 | O=C(/C=C/c1c(-c2cccc(Cl)c2)nc2sc(C(F)(F)F)nn12)NC1CC1 [Example 0082] | – | 3.31 | –
23 | CCN(CC)C(=O)/C=C/c1c(-c2cccc(C(F)(F)F)c2)nc2sc(C(F)(F)F)nn12 [Example 0434] | – | – | Physical data: log P: 4.42
24 | CC(C)C(C)NC(=O)/C=C/c1c(-c2ccc(Cl)cc2)nc2sc(C(F)(F)F)nn12 (stereo not drawn) [Example 0023] | – | 4.25 | –
25 | O=C(/C=C/c1c(-c2cccc(Cl)c2)nc2sc(C(F)(F)F)nn12)NCC1CC1 [Example 0086] | – | 3.81 | –
26 | COCC(C)NC(=O)/C=C/c1c(-c2ccc(OC)c(OC)c2)nc2sc(C(F)(F)F)nn12 (stereo not drawn) [Example 0663] | 2.7 | – | –

Row | SMILES | Physical data: logP | Physical data (logP) | other results
27 | C[C@@H](CS(C)(=O)=O)NC(=O)/C=C/c1c(-c2ccc(Cl)cc2Cl)nc2sc(C(F)(F)F)nn12 [Example 0003, (2E)-3-[6-(2,4-Dichlorophenyl)-2-(trifluoromethyl)imidazo[2,1-b][1,3,4]thiadiazol-5-yl]-N-[(1S)-1-methyl-2-(methylsulphonyl)ethyl]acrylamide] | – | – | chromatographic logP (HPLC gradient method, acetonitrile/0.1% strength aqueous phosphoric acid or formic acid, preparation examples, read-out: log P): 3.03
28 | O=C(/C=C/c1c(-c2cccc(Cl)c2)nc2sc(C(F)(F)F)nn12)NOCC1CC1 [Example 0130] | – | 3.63 | –
29 | CC(C)C(C)NC(=O)/C=C/c1c(-c2cccc(Cl)c2)nc2sc(C(F)(F)F)nn12 (stereo not drawn) [Example 0094] | – | 4.32 | –
30 | CCN(CC)C(=O)/C=C/c1c(-c2ccccc2C)nc2sc(C(F)(F)F)nn12 [Example 0292] | – | – | Physical data: log P: 3.75
31 | CCC(C)NC(=O)/C=C/c1c(-c2ccccc2Cl)nc2scc(C)n12 (stereo not drawn) [Example 0891] | 2.35 | – | –
32 | COCc1nn2c(/C=C/C(=O)NC3CCCC3)c(-c3ccccc3Cl)nc2s1 [Example 0831] | 2.8 | – | –
33 | O=C(O)/C=C/c1c(-c2nccs2)nc2sc(C(F)(F)F)nn12 [VA115] | – | 2.48 | –
34 | CC(C)(C)NC(=O)/C=C/c1c(-c2ccccc2Cl)nc2sc(C(C)(C)C)nn12 [Example 0801] | 3.95 | – | –
35 | CC(NC(=O)/C=C/c1c(-c2ccc(Cl)cc2Cl)nc2sc(C(F)(F)F)nn12)c1ccccn1 (stereo not drawn) [Example 0555] | – | – | Physical data: log P: 2.84
36 | O=C(/C=C/c1c(-c2ccccc2Cl)nc2sc(-c3ccc(C(F)(F)F)cc3)nn12)NC1CCC(C(F)(F)F)CC1 (stereo not drawn) [Example 0843] | 4.86 | – | –
37 | O=C(/C=C/c1c(-c2ccc(Cl)cc2Cl)nc2sc(C(F)(F)F)nn12)N1CCOCC1 [Example 0575] | – | – | Physical data: log P: 3.34
38 | CC(NC(=O)/C=C/c1c(-c2cccc(Cl)c2)nc2sc(C(F)(F)F)nn12)c1ccccc1 (stereo not drawn) [Example 0108] | – | 4.37 | –
39 | Cc1ccccc1-c1nc2sc(C(F)(F)F)nn2c1/C=C/C(=O)N1CCOCC1 [Example 0294] | – | – | Physical data: log P: 2.91
40 | CC(C)CN(C)C(=O)/C=C/c1c(-c2cccc(Cl)c2)nc2sc(C(F)(F)F)nn12 [Example 0138] | – | 4.63 | –
41 | CCC(NC(=O)/C=C/c1c(-c2ccc(OC)c(OC)c2)nc2sc(C(F)(F)F)nn12)C1CCCCC1 (stereo not drawn) [Example 0691] | 4.46 | – | –
42 | COc1ccc(-c2nc3sc(C(F)(F)F)nn3c2/C=C/C(=O)NC(C)c2ccccn2)cc1OC (stereo not drawn) [Example 0698] | 2.16 | – | –
43 | COCc1nn2c(/C=C/C(=O)NCC(F)(F)C(F)(F)C(F)(F)F)c(-c3ccccc3Cl)nc2s1 [Example 0837] | 3.59 | – | –
44 | O=Cc1c(-c2nccs2)nc2sc(C(F)(F)C(F)(F)F)nn12 [IVA114] | – | 3.03 | –
45 | O=Cc1c(-c2ccc(-c3ccc(OC(F)(F)F)cc3)cc2)nc2sc(C(F)(F)F)nn12 [IVA121] | – | 4.78 | –
46 | COc1ccc(-c2nc3sc(C(F)(F)F)nn3c2/C=C/C(=O)NC(C)C(C)C)cc1OC (stereo not drawn) [Example 0668] | 3.41 | – | –
47 | CC(C)NC(=O)/C=C/c1c(-c2ccccc2Cl)nc2sc(C(C)(C)C)nn12 [Example 0802] | 3.33 | – | –
48 | CC(C)NC(=O)/C=C/c1c(-c2sccc2Cl)nc2sc(C(F)(F)F)nn12 [Example 0920] | 3.19 | – | –
49 | CN(C)C(=O)/C=C/c1c(-c2ccc(Cl)cc2)nc2sc(C(F)(F)F)nn12 [Example 0065] | – | 3.42 | –
50 | CC(C)NC(=O)/C=C/c1c(-c2cccnc2Cl)nc2sc(C(F)(F)F)nn12 [Example 0946] | 2.47 | – | –
51 | CCC(C)NC(=O)/C=C/c1c(-c2cccc(C(F)(F)F)c2)nc2sc(C(F)(F)F)nn12 (stereo not drawn) [Example 0380] | – | – | Physical data: log P: 4.18
